Values quoted from earlier work as cited in patent publication US20050208134A1, “Biocompatible polymeric beads and use thereof” (priority 2004, published 2005).

Conditions: humans, administered orally

## O=C(CC1NCCCC1O)Cn1cnc2cc(Br)c(Cl)cc2c1=O (stereo not shown) [halofuginone]
  maximum tolerated dose with no adverse effects observed: 1 mg/day
